Experiments:
crabgrass = assay: Test A crabgrass; format: in vivo, Digitaria spp.; conditions: 0 to 10 scale where 0 is no effect and 10 is complete control
Summary of the method: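 Visual injury score, 0 (no effect) to 10 (complete control), vs untreated controls at ~11 d in greenhouse. Pre: soil drench on sandy loam. Post: spray to runoff, 1–2 leaf stage.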

cocklebur = assay: Test C postemergence cocklebur; format: in vivo, Xanthium strumarium; conditions: 0 to 100 scale, 0 no effect, 100 complete control
Method: (§1) Compounds evaluated in this test were formulated in a non-phytotoxic solvent mixture which included a surfactant and applied to plants that were grown for various periods of time before treatment (postemergence application). A mixture of sandy loam soil and greenhouse potting mix in a 60:40 ratio was used for the postemergence test.
(§2) Plantings of these crops and weed species were adjusted to produce plants of appropriate size for the postemergence test. All plant species were grown using normal greenhouse practices. Crop and weed species include arrowleaf sida (Sida rhombifolia), barnyardgrass (Echinochloa crus-galli), cocklebur (Xanthium strumarium), common ragweed (Ambrosia elatior), corn (Zea mays), cotton (Gossypium hirsutum), eastern black nightshade (Solanum ptycanthum), fall panicum (Panicum dichotomiflorum), field bindweed (Convolvulus arvensis), giant foxtail (Setaria faberii), hairy beggarticks (Bidens pilosa), ivyleaf morningglory (Ipomoea hederacea), johnsongrass (Sorghum halepense), ladysthumb smartweed (Polygonum persicaria), lambsquarters (Chenopodium album), large crabgrass (Digitaria sanguinalis), purple nutsedge (Cyperus rotundus), redroot pigweed (Amaranthus retroflexus), soybean (Glycine max), surinam grass (Brachiaria decumbens), velvetleaf (Abutilon theophrasti) and wild poinsettia (Euphorbia heterophylla).
(§3) Treated plants and untreated controls were maintained in a greenhouse for approximately 14, to 21 days, after which all treated plants were compared to untreated controls and visually evaluated. Plant response ratings, summarized in Table C, were based upon a 0 to 100 scale where 0 was no effect and 100 was complete control. A dash response (−) means no test result.

common ragweed = assay: Test C postemergence common ragweed; format: in vivo, Ambrosia elatior; conditions: 0 to 100 scale, 0 no effect, 100 complete control
Summary of the method: (§4)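 Compounds in a non-phytotoxic solvent mixture with surfactant were sprayed postemergence on greenhouse-grown plants sized for treatment, in 60:40 sandy loam soil:potting mix. After about 14 to 21 days, injury was rated visually against untreated controls on a 0–100 scale (0 no effect, 100 complete control).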

cotton = assay: Test C postemergence cotton; format: in vivo, Gossypium hirsutum; conditions: 0 to 100 scale, 0 no effect, 100 complete control
Method: as §1, §2, §3

eastern black nightshade = assay: Test C postemergence eastern black nightshade; format: in vivo, Solanum ptycanthum; conditions: 0 to 100 scale, 0 no effect, 100 complete control
Method: as §1, §2, §3

giant foxtail = assay: Test C postemergence giant foxtail; format: in vivo, Setaria faberii; conditions: 0 to 100 scale, 0 no effect, 100 complete control
Summary of the method: as §4

johnsongrass = assay: Test C postemergence johnsongrass; format: in vivo, Sorghum halepense; conditions: 0 to 100 scale, 0 no effect, 100 complete control
Method: as §1, §2, §3

large crabgrass = assay: Test C postemergence large crabgrass; format: in vivo, Digitaria sanguinalis; conditions: 0 to 100 scale, 0 no effect, 100 complete control
Method: as §1, §2, §3

purple nutsedge = assay: Test C postemergence purple nutsedge; format: in vivo, Cyperus rotundus; conditions: 0 to 100 scale, 0 no effect, 100 complete control
Summary of the method: as §4

soybean = assay: Test C postemergence soybean; format: in vivo, Glycine max; conditions: 0 to 100 scale, 0 no effect, 100 complete control
Method: as §1, §2, §3

velvetleaf = assay: Test C postemergence velvetleaf; format: in vivo, Abutilon theophrasti; conditions: 0 to 100 scale, 0 no effect, 100 complete control
Summary of the method: as §4

wild poinsettia = assay: Test C postemergence wild poinsettia; format: in vivo, Euphorbia heterophylla; conditions: 0 to 100 scale, 0 no effect, 100 complete control
Summary of the method: as §4

CCN(CC)C(=O)n1oc(=O)n(-c2ccc(OC)cc2)c1=O [Compound 1]
9: Plant response rating, Crabgrass (crabgrass; Pre-emergence, Rate 2000 g/ha)
5: Plant response rating, Crabgrass (crabgrass; Postemergence, Rate 1000 g/ha)

CC(C)N(C(=O)n1oc(=O)n(Cc2cccs2)c1=O)c1ccccc1 [Compound 103]
30: Plant response rating, Soybean (soybean; Rate 140 g/ha) | Plant response rating, Soybean (soybean; Rate 280 g/ha)
80: Plant response rating Cotton (cotton; Rate 1120 g/ha)
10: Plant response rating, Large crabgrass (large crabgrass; Rate 1120 g/ha) | Plant response rating, Velvetleaf (velvetleaf; Rate 560 g/ha) | Plant response rating Wild poinsettia (wild poinsettia; Rate 560 g/ha)
0: Plant response rating, Cocklebur (cocklebur; Rate 140 g/ha) | Plant response rating, Cocklebur (cocklebur; Rate 280 g/ha) | Plant response rating, Cocklebur (cocklebur; Rate 560 g/ha) | Plant response rating, Cocklebur (cocklebur; Rate 1120 g/ha) | Plant response rating Common ragweed (common ragweed; Rate 140 g/ha) | Plant response rating Common ragweed (common ragweed; Rate 280 g/ha) | Plant response rating Common ragweed (common ragweed; Rate 560 g/ha) | Plant response rating Cotton (cotton; Rate 140 g/ha) | Plant response rating E. blacknightsh (eastern black nightshade; Rate 140 g/ha) | Plant response rating E. blacknightsh (eastern black nightshade; Rate 280 g/ha) | Plant response rating E. blacknightsh (eastern black nightshade; Rate 560 g/ha) | Plant response rating E. blacknightsh (eastern black nightshade; Rate 1120 g/ha) | Plant response rating, Giant foxtail (giant foxtail; Rate 140 g/ha) | Plant response rating, Giant foxtail (giant foxtail; Rate 280 g/ha) | Plant response rating, Giant foxtail (giant foxtail; Rate 560 g/ha) | Plant response rating, Johnsongrass (johnsongrass; Rate 140 g/ha) | Plant response rating, Johnsongrass (johnsongrass; Rate 280 g/ha) | Plant response rating, Johnsongrass (johnsongrass; Rate 560 g/ha) | Plant response rating, Johnsongrass (johnsongrass; Rate 1120 g/ha) | Plant response rating, Large crabgrass (large crabgrass; Rate 140 g/ha) | Plant response rating, Large crabgrass (large crabgrass; Rate 280 g/ha) | Plant response rating, Large crabgrass (large crabgrass; Rate 560 g/ha) | Plant response rating, Purple nutsedge (purple nutsedge; Rate 140 g/ha) | Plant response rating, Purple nutsedge (purple nutsedge; Rate 280 g/ha) | Plant response rating, Purple nutsedge (purple nutsedge; Rate 560 g/ha) | Plant response rating, Purple nutsedge (purple nutsedge; Rate 1120 g/ha) | Plant response rating, Velvetleaf (velvetleaf; Rate 140 g/ha) | Plant response rating Wild poinsettia (wild poinsettia; Rate 140 g/ha) | Plant response rating Wild poinsettia (wild poinsettia; Rate 280 g/ha)
35: Plant response rating, Soybean (soybean; Rate 560 g/ha) | Plant response rating, Soybean (soybean; Rate 1120 g/ha)
45: Plant response rating, Velvetleaf (velvetleaf; Rate 1120 g/ha)
60: Plant response rating Wild poinsettia (wild poinsettia; Rate 1120 g/ha)
20: Plant response rating Cotton (cotton; Rate 280 g/ha)
40: Plant response rating Cotton (cotton; Rate 560 g/ha) | Plant response rating, Giant foxtail (giant foxtail; Rate 1120 g/ha)
5: Plant response rating Common ragweed (common ragweed; Rate 1120 g/ha) | Plant response rating, Velvetleaf (velvetleaf; Rate 280 g/ha)

CC(C)Oc1cc(-n2c(=O)on(C(=O)N(c3ccc(F)cc3)C(C)C)c2=O)c(Cl)cc1Cl [Compound 43]
1: Plant response rating, Crabgrass (crabgrass; Pre-emergence, Rate 2000 g/ha)
0: Plant response rating, Crabgrass (crabgrass; Postemergence, Rate 1000 g/ha)

CC(C)N(C(=O)n1oc(=O)n(Cc2cccs2)c1=O)c1ccc(F)cc1 [Compound 80]
35: Plant response rating Cotton (cotton; Rate 280 g/ha)
10: Plant response rating, Cocklebur (cocklebur; Rate 280 g/ha) | Plant response rating, Large crabgrass (large crabgrass; Rate 560 g/ha) | Plant response rating, Large crabgrass (large crabgrass; Rate 1120 g/ha)
5: Plant response rating, Cocklebur (cocklebur; Rate 140 g/ha) | Plant response rating Common ragweed (common ragweed; Rate 560 g/ha) | Plant response rating Common ragweed (common ragweed; Rate 1120 g/ha) | Plant response rating E. blacknightsh (eastern black nightshade; Rate 280 g/ha) | Plant response rating, Soybean (soybean; Rate 140 g/ha) | Plant response rating, Velvetleaf (velvetleaf; Rate 140 g/ha) | Plant response rating, Velvetleaf (velvetleaf; Rate 280 g/ha) | Plant response rating Wild poinsettia (wild poinsettia; Rate 560 g/ha) | Plant response rating Wild poinsettia (wild poinsettia; Rate 1120 g/ha)
0: Plant response rating Common ragweed (common ragweed; Rate 140 g/ha) | Plant response rating Common ragweed (common ragweed; Rate 280 g/ha) | Plant response rating E. blacknightsh (eastern black nightshade; Rate 140 g/ha) | Plant response rating, Giant foxtail (giant foxtail; Rate 140 g/ha) | Plant response rating, Giant foxtail (giant foxtail; Rate 280 g/ha) | Plant response rating, Giant foxtail (giant foxtail; Rate 560 g/ha) | Plant response rating, Johnsongrass (johnsongrass; Rate 140 g/ha) | Plant response rating, Johnsongrass (johnsongrass; Rate 280 g/ha) | Plant response rating, Johnsongrass (johnsongrass; Rate 560 g/ha) | Plant response rating, Johnsongrass (johnsongrass; Rate 1120 g/ha) | Plant response rating, Large crabgrass (large crabgrass; Rate 140 g/ha) | Plant response rating, Large crabgrass (large crabgrass; Rate 280 g/ha) | Plant response rating, Purple nutsedge (purple nutsedge; Rate 140 g/ha) | Plant response rating, Purple nutsedge (purple nutsedge; Rate 280 g/ha) | Plant response rating, Purple nutsedge (purple nutsedge; Rate 560 g/ha) | Plant response rating, Purple nutsedge (purple nutsedge; Rate 1120 g/ha) | Plant response rating Wild poinsettia (wild poinsettia; Rate 140 g/ha) | Plant response rating Wild poinsettia (wild poinsettia; Rate 280 g/ha)
60: Plant response rating E. blacknightsh (eastern black nightshade; Rate 1120 g/ha) | Plant response rating, Soybean (soybean; Rate 560 g/ha)
40: Plant response rating Cotton (cotton; Rate 560 g/ha) | Plant response rating Cotton (cotton; Rate 1120 g/ha)
50: Plant response rating, Cocklebur (cocklebur; Rate 560 g/ha) | Plant response rating, Cocklebur (cocklebur; Rate 1120 g/ha) | Plant response rating E. blacknightsh (eastern black nightshade; Rate 560 g/ha)
20: Plant response rating Cotton (cotton; Rate 140 g/ha) | Plant response rating, Giant foxtail (giant foxtail; Rate 1120 g/ha) | Plant response rating, Soybean (soybean; Rate 280 g/ha) | Plant response rating, Velvetleaf (velvetleaf; Rate 560 g/ha) | Plant response rating, Velvetleaf (velvetleaf; Rate 1120 g/ha)
